For one test, the system named is CleD. The test is described as follows: 1H-15N HSQC NMR of 15N-CleD with FliM peptides. In kind it is binding, Caulobacter crescentus. The protocol: The standard two-dimensional spectra ^1H-^15N HSQC of His-CleD with or without peptides were performed on a ^15N isotope labeled His-CleD. The His-CleD (400 µM) sample was in 20 mM sodium phosphate buffer at pH 7.0, 200 mM NaCl, 1 mM MgCl2, 5 mM 2-Mercaptoethanol, 0.02% NaN3 (w/v), and 5% (v/v) D2O with a sample volume of 270 μL. c-di-GMP was titrated to the protein sample in 2.5-fold excess. The FliM peptide from residue Ala47 to Gly62 contains an additional Trp at the N-terminus to measure concentration and to increase solubility (WASERILNQDEIDSLLG). As the corresponding ID57_WA peptide contains a Trp we used the following sequence ASERILNQDEWASLLG. Both peptides were purchased from JPT Peptide Technologies, and dissolved in 200 mM NaCl, 20 mM sodium phosphate buffer at pH 7.0, 1 mM MgCl2, 5 mM β-Mercaptoethanol, 0.02%NaN3 (w/v), and 5% (v/v) D2O. With homonuclear 2D-TOCSY and 2D-NOESY experiments the peptide proton resonances were assigned. It was confirmed, that both peptides were stable in this buffer and unfolded (data not shown). The spectrum of the purified CleD protein was recorded in the same buffer as the FliM peptides.

The target of test [1] is T1, StrepII-CleD (Caulobacter vibrioides, UniProt Q9A3V2). The test is described as follows: UV cross-linking competition with non-labeled nucleotides. Type of test: binding, Caulobacter crescentus. The following applies: 1 µM StrepII-CleD, 0.25 µM 33P-labelled c-di-GMP. The protocol:
Synthesis of radiolabeled c-di-GMP using YdeH and UV light-induced cross-linking experiments in conical 96-well plates (Greiner Bio-One) were performed as described recently ([Steiner et al., 2013]; [Christen et al., 2005]). […] As a control BSA was included. For competition experiments unlabeled nucleotides were incubated with the protein for 15 min prior the addition of c-[^33P] -di-GMP. The 96-well plates were then UV-irradiated at 254 nm for 20 min using a Bio-Link crosslinker (Vilber Lourmat, France). After addition of 5 μl loading dye and boiling for 5 min the samples were subjected to SDS-PAGE. Proteins were analyzed by Coomassie staining and autoradiography. Band intensities were quantified using the ImageJ64 software and the data were fitted using GraphPad Prism version 5.04 for Windows (GraphPad Software, San Diego California USA). The Kd was calculated by non-linear regression using the ‘One site – Total binding’ equation.

Test [2] addresses T2, CleD-GFP (Caulobacter vibrioides, UniProt Q9A3V2). The test is described as follows: 1H-NMR Jump-return imino proton spectra. Type of test: binding, Caulobacter crescentus. The note with it: difference spectrum with and without c-di-GMP, four imino H1 resonances. The protocol: NMR spectra were recorded at 298 K on Bruker DRX 600, and DRX 900 NMR spectrometers equipped with TXI and TCI probe heads, respectively. The one dimensional NMR spectra were recorded with a Jump-return echo sequence ([Sklenár et al., 1987]) optimized for resonances at around 12 ppm. For the complex His-CleD-GFP·c-di-GMP and apo His-CleD-GFP 16384 scans were recorded. The NMR samples were prepared as follows. The sample of apo His-CleD-GFP (30 μM) was prepared in 100 mM NaCl, 20 mM sodium phosphate buffer at pH 6.5, 0.01% NaN3 (w/v), and 5% (v/v) D2O as sample volume of 250 μL. Complex CleD-GFP·c-di-GMP: the ligand was titrated to the apo His-CleD-GFP sample from a 20 mM stock solution in twofold excess.

The next test has as its target His-CleD_R113A-GFP (Caulobacter vibrioides, UniProt Q9A3V2, R113A). Put plainly: ITC with R113A mutant. Type of test: binding, Caulobacter crescentus. The protocol: (§1) ITC experiments were performed on a VP-ITC MicroCalorimeter (MicroCal, Northampton, MA, USA). Protein samples, c-di-GMP and buffer (50 mM Tris-HCl, pH 8.0, 100 mM NaCl, 5 mM MgCl2, 1 mM DTT) were degassed for 15 min prior to filling into sample cell and syringe. The sample cell contained 7.4 µM of His-CleD-GFP and the syringe contained 69.7 µM of cdG. The concentrations were determined in a spectrophotometer using a cuvette with 1 cm path length. All experiments were carried out at 10 °C with 30 injections (10 µl each) with a 250 s interval. Stir rate was 300 rpm. The data were evaluated using ITC Data Analysis in ORIGIN (MicroCal) provided by the manufacturer. The area under each peak was integrated and fitted using the built-in one-site model by non-linear least squares regression analysis.

Test [3] concerns the target T1, StrepII-CleD. Put plainly: UV cross-linking with radiolabeled c-di-GMP. Type of test: binding, Caulobacter crescentus. The protocol:
Synthesis of radiolabeled c-di-GMP using YdeH and UV light-induced cross-linking experiments in conical 96-well plates (Greiner Bio-One) were performed as described recently ([Steiner et al., 2013]; [Christen et al., 2005]). Briefly, 2 μM protein was incubated for 10 min at room temperature with c-[^33P]-di-GMP in a total volume of 20 μl using PBS as buffer. As a control BSA was included. For competition experiments unlabeled nucleotides were incubated with the protein for 15 min prior the addition of c-[^33P] -di-GMP. The 96-well plates were then UV-irradiated at 254 nm for 20 min using a Bio-Link crosslinker (Vilber Lourmat, France). After addition of 5 μl loading dye and boiling for 5 min the samples were subjected to SDS-PAGE. Proteins were analyzed by Coomassie staining and autoradiography. Band intensities were quantified using the ImageJ64 software and the data were fitted using GraphPad Prism version 5.04 for Windows (GraphPad Software, San Diego California USA). The Kd was calculated by non-linear regression using the ‘One site – Total binding’ equation.

Test [4] addresses T2, CleD-GFP. The test is described as follows: Isothermal titration calorimetry (ITC). The following applies: ITC at 10°C. Type of test: binding, Caulobacter crescentus. The protocol: as §1
(In general: Isothermal titration calorimetry measures the heat released or taken up as one component is titrated into another.)

In test [5] the test system is R156A mutant variant of CleD-GFP. The test is described as follows: ITC with R156A mutant. Type of test: binding, Caulobacter crescentus. Here is the method: as §1
Test [6] deals with EcCheY-ARR (wild-type ARR of CleD fused to E. coli CheY) (Caulobacter vibrioides, UniProt Q9A3V2). The test is described as follows: MST. In kind it is binding. The following applies: read-out: apparent Kd. Here is the method:
(§2) MST experiments were carried out in a Monolith NT.115 device using standard treated capillaries (NanoTemper Technologies). Fluorescence changes resulting from thermophoresis were recorded using blue channel optics of the instrument (λex = 470 ± 15 nm, λem = 520 ± 10 nm) for the 30 s period of infrared laser heating at 40% of maximum laser power followed by a 5 s of cooling period. Measurements were performed in a buffer containing 50 mM Tris-HCl, pH 8.0, 100 mM NaCl, 5 mM MgCl2, 1 mM DTT and 0.1% Tween 20. 2'-O-(6-[Fluoresceinyl]aminohexylcarbamoyl)-cyclic diguanosine monophosphate (2’fluo-AHC-c-di-GMP, Biolog, Bremen, Germany) was added to probe the binding affinity of CleD domains. A 16-point 1:1 serial dilution series of proteins was titrated against a fixed concentration (60 nM) of 2’fluo-AHC-c-di-GMP. Data were evaluated in the program ProFit (Quansoft, Zurich, Switzerland) and fitted using the Hill equation.

Another test deals with T3, His-SUMO (Saccharomyces cerevisiae, UniProt Q12306).
T3 construct: made in house; host or cells: E. coli BL21 (DE3)
The test is described as follows: MST. In kind it is binding. The protocol: as §2

A further test concerns the target His-CleD (aa 19–269) (Caulobacter vibrioides, UniProt Q9A3V2). The test is described as follows: Microscale thermophoresis (MST). Type of test: binding, Caulobacter crescentus. The protocol:
as §2
For orientation: Microscale thermophoresis detects binding through changes in fluorescence in a small temperature gradient.

For test [7], the target named is EcCheY-ARR with R156A mutant ARR (Caulobacter vibrioides, UniProt Q9A3V2, R156A). Put plainly: MST. Type of test: binding, E. coli. The following applies: read-out: apparent Kd. Here is the method:
as §2

The target in a further test is T4, His-CheY (Escherichia coli, UniProt P0AE67).
T4 construct: made in house; host or cells: E. coli BL21 (DE3)
Put plainly: MST. Type of test: binding, E. coli. The protocol: as §2

Another test relates to His-SUMO R156A ARRCleD. The test is described as follows: MST. In kind it is binding, Caulobacter crescentus. The protocol:
as §2

A further test deals with His-SUMO R169A ARRCleD (Caulobacter vibrioides, UniProt Q9A3V2, R169A). Put plainly: MST. Type of test: binding, Caulobacter crescentus. The protocol:
as §2

The target in test [8] is His-CleD-rec-ARR (aa 19–174) (Caulobacter vibrioides, UniProt Q9A3V2). The test is described as follows: MST. In kind it is binding, Caulobacter crescentus. The protocol:
as §2

In the next test the target is His-CleD (aa 19–262) (Caulobacter vibrioides, UniProt Q9A3V2). The test is described as follows: MST. Type of test: binding, Caulobacter crescentus. The note with it: 60 nM ligand; variant lacking part of the CTR. The protocol: as §2
The target of a further test is His-CleD-rec (aa 19–141) (Caulobacter vibrioides, UniProt Q9A3V2). Put plainly: MST. In kind it is binding, Caulobacter crescentus. Here is the method:
as §2

The subject of test [9] is isolated ARR of CleA fused to His-SUMO. Put plainly: MST. In kind it is binding, Caulobacter crescentus. Here is the method: as §2

Entries after “also recorded” stand apart in the source; their conditions may differ.

T2 sequence (Q9A3V2 entry or part of it): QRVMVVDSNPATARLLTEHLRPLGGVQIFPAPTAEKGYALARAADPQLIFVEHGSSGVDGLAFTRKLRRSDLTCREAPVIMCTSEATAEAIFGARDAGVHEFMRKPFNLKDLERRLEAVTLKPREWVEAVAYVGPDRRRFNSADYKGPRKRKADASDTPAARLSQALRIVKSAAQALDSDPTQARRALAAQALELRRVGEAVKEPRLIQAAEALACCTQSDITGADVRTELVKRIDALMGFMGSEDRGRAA
T1 sequence (Q9A3V2 entry or part of it): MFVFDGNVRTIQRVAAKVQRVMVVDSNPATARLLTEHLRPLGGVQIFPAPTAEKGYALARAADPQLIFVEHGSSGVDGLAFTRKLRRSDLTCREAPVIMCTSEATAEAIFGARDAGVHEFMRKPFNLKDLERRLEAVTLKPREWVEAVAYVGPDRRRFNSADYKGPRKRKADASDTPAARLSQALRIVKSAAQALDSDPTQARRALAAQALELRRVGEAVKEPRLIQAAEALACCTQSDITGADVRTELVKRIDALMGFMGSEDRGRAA
Chain of His-CleD-rec-ARR (aa 19–174) (Q9A3V2 entry or part of it): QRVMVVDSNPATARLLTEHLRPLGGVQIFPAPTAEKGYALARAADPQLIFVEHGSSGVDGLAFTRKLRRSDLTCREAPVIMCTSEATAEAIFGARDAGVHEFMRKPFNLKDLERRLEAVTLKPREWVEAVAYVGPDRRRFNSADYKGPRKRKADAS
Chain of His-CleD-rec (aa 19–141) (Q9A3V2 entry or part of it): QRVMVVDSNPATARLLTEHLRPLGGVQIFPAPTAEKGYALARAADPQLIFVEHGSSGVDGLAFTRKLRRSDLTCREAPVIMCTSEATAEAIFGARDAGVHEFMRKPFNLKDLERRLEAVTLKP
Chain of EcCheY-ARR (wild-type ARR of CleD fused to E. coli CheY) (P0AE67 2-129): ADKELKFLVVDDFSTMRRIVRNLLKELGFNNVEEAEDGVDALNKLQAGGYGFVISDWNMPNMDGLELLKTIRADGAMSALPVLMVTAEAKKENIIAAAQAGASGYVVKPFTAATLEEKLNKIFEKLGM
Chain of EcCheY-ARR (wild-type ARR of CleD fused to E. coli CheY) (Q9A3V2 entry or part of it): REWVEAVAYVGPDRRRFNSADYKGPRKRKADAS
T3 sequence (Q12306 whole entry): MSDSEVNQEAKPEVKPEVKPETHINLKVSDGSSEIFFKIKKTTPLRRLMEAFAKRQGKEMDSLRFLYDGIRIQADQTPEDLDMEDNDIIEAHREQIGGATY
T4 sequence (P0AE67 whole entry): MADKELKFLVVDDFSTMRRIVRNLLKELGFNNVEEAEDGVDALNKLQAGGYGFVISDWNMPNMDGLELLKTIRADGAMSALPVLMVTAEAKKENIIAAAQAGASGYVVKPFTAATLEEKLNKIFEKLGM
Chain of EcCheY-ARR with R156A mutant ARR (P0AE67 2-129, further chain): as the sequence (P0AE67 2-129) above
Chain of His-CleD (aa 19–262) (Q9A3V2 entry or part of it): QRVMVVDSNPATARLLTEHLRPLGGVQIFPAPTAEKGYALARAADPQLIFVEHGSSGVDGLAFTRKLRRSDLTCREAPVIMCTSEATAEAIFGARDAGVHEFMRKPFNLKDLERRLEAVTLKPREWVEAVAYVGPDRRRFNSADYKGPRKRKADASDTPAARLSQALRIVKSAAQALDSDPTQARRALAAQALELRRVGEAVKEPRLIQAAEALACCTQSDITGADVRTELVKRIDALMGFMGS

For the compound “WASERILNQDEIDSLLG [FliM wild-type peptide, FliM peptide from residue Ala47 to Gly62 with an additional Trp at the N-terminus]”, the “number of CleD resonances with shift changes” value in the test on CleD (in the presence of c-di-GMP, peptide in two-fold excess) was “approximately 10 resonances”. For the same compound, in the test with CleD (without c-di-GMP), the “HSQC spectrum change (in words)” value is on record as “indistinguishable from the spectrum recorded for CleD alone”.

With `Nc1nc2c(ncn2[C@@H]2O[C@H](COP(=O)(O)O[C@H]3[C@@H](O)[C@H](n4cnc5c(=O)[nH]c(N)nc54)O[C@@H]3COP(=O)(O)O)[C@@H](O)[C@H]2O)c(=O)[nH]1` [pGpG], the “concentration required for a similar reduction of 33P-labelled c-di-GMP binding, relative to non-labeled c-di-GMP” value on StrepII-CleD [1] is given as 1000 fold.

Regarding `Nc1nc2c(ncn2[C@@H]2O[C@H](COP(=O)(O)OP(=O)(O)OP(=O)(O)O)[C@@H](O)[C@H]2O)c(=O)[nH]1` [GTP], the “concentration required for a similar reduction of 33P-labelled c-di-GMP binding, relative to non-labeled c-di-GMP” value at StrepII-CleD [1] was 1000 fold.

Regarding `Nc1nc2c(ncn2[C@@H]2O[C@@H]3COP(=O)(O)O[C@H]4[C@@H](O)[C@H](n5cnc6c(=O)[nH]c(N)nc65)O[C@@H]4COP(=O)(O)O[C@H]3[C@H]2O)c(=O)[nH]1` [c-di-GMP, Cyclic di-GMP], the binding stoichiometry entry at CleD-GFP [2] is given as “two molecules of c-di-GMP are bound to one CleD protomer; also recorded: one c-di-GMP dimer to one protein monomer”. Besides, the Kd at His-CleD_R113A-GFP was found to be 0.221 µM; at StrepII-CleD [3], 0.212 µM; on CleD-GFP [4] it was 0.086 µM. For the same compound, the “increase of the Kd as compared to wild-type CleD” value on His-CleD_R113A-GFP (ITC) amounted to 3 fold. In addition, the “binding (in words)” value at StrepII-CleD [3] (purified Strep-tagged CleD, radiolabeled c-di-GMP) was “high affinity binding in the nanomolar range”; in test [5], “completely abolished”. At StrepII-CleD [1], the “competition with labeled probe for binding (in words)” value is “effectively compete; also recorded: equimolar amounts of non-labeled c-di-GMP reduced binding”.

“2'-O-(6-[Fluoresceinyl]aminohexylcarbamoyl)-cyclic diguanosine monophosphate [flr-cdG]”: the Kd in test [6] turned out to be 14.8 µM; on His-CleD (aa 19–269) (60 nM ligand) it was 1.2 µM; in [7], 471 µM; in test [8] (60 nM ligand), 6.2 µM; at His-CleD (aa 19–262), 1.3 µM; on His-CleD-rec (aa 19–141) (60 nM ligand) it was 41.7 µM. Besides, the “binding (in words)” value at His-SUMO is listed as “not SUMO itself were able to bind flr-cdG”; at His-CheY, “failed to bind”; with His-SUMO R156A ARRCleD it was “strongly reduced binding; also recorded: completely abolished”; in test [9], “failed to bind”. Moreover, on His-CleD (aa 19–269) (full-length CleD and variant lacking part of the CTR), the “Kd relative to affinities determined for c-di-GMP itself” value is listed as “roughly 10 fold”. Further, the “reduction of binding relative to wild-type ARR” value on His-SUMO R169A ARRCleD was “about 5 fold”. The “dissociation constant relative to full-length protein” value in [8] came out at 5 fold; on His-CleD-rec (aa 19–141), 40 fold.

Turning to “ASERILNQDEWASLLG [FliM_ID57WA mutant peptide, FliM residues 47–62 peptide with ID57WA substitution]”, the “HSQC spectrum change (in words)” value in the test with CleD (with c-di-GMP) is listed as “indistinguishable from the spectrum recorded for CleD alone”.

The record behind these values is paper PMC5677366, “Cyclic di-GMP differentially tunes a bacterial flagellar motor through a novel class of CheY-like regulators” (eLife, 2017).
